Experimental data published in patent EP4613273A1, “TREATMENT OF BONE LOSS” (priority 2024, dated 2025).
Where a name gives a salt, the structure may show the parent alone.

Experiments:
Assay type in all cases: in vivo
CTX-1 = test: Plasma CTX-1 (bone resorption marker) in healthy beagle dogs
Description: Compound Ib besylate salt (referred to as MIV-701 besylate salt) was administered once daily for 14 days to 3 healthy beagle dogs at three different doses: 1 mg/kg, 10 mg/kg and 100 mg/kg.
The doses were consecutively administered for 14 days with a >5-day washout period between two dose levels.
Each treatment period can be resumed as follows: • J0 (T+24h): first Compound Ib besylate salt administration, withdrawal of blood samples for pharmacokinetic and plasma CTX-1 assessment (pre-dose and 0.5h, 1h, 2h, 4h, 8h and 24h after drug administration), pre-dose blood samples for hematology and clinical biochemistry (baseline values for safety assessment). • J1 to J12: pre-dose blood samples • J13: last Compound Ib besylate salt administration, withdrawal of plasma samples for pharmacokinetic and plasma CTX-1 assessment (pre-dose and 0.5h, 1h, 2h, 4h, 8h and 24h after drug administration), pre-dose sampling for hematology and clinical biochemistry (baseline values for safety assessment). • J15-J≥19: washout period.

[1] = test system: dogs with alveolar bone loss induced by spontaneously developed periodontal disease; test: Alveolar bone loss parameters by CBCT-scan and X-ray radiography in dogs with periodontal disease; conditions: CTX-1 responders, Day-90 vs Day-0
Description: (§1) The present study was performed on 10 Beagle dogs suffering from alveolar bone loss induced by spontaneously developed periodontal disease. All dogs were treated with MIV-701 besylate salt for minimum 30 day and maximum 90 days, depending on the tolerance at intermediate visits. The product is administrated to the dog by its owner at home, once a day with a meal.
(§2) There were two treatment groups: • Group A (5 dogs) with a dose of 25 mg/kg. • Group B (5 dogs) with a dose of 50 mg/kg.
Dental imaging was performed at visit V2 (Day 0) and visit V5 (90t 3 days).
Each time a full mouth CBCT-scan was performed together with dental radiographs of selected teeth for the study. The results of these exams were recorded in IMAGING FORM by the Investigator.
Full mouth cone-beam computed tomography (NewTom, 5G XL, Bologna, Italy) was performed at visit V2 (Day 0) and visit V5 (Day 90t 3 days).
The exam was performed only in dogs recruited in Polish site. It was performed under general anesthesia of Investigator's choice and aim at alveolar bone loss measurement.
Scans were analyzed with the use of NNT viewer, software provided by the manufacturer (version: 10.1; QR SRL, Verona, Italy). At both times, the volumetric assessment of dentition was set up for the same high-resolution mode (10 × 10 cm with 0.15 mm layers). Both readings were made in the same orientations of axes and locations measuring alveolar bone loss with the use of maximum magnification (Gawro, Strøm et Nemec 2022). To evaluate the effect of the treatment on the alveolar bone loss, the following three measurements (De Faria Vasconcelos et al. 2012) were performed on the selected teeth for the study: • 1. The height of the alveolar crest (AC), measured from the cementoenamel junction (CEJ) to the upper rim of AC (Figure 12A). • 2. The depth of the defect, measured from the CEJ to the bottom of the defect (Figure 12B). • 3. The width of the defect, measured from the highest point of the AC to the dental root adjacent to the defect (Figure 12C).
Dental radiography was performed at visit V2 (Day 0) and visit V5 (Day 90t 3 days).
To evaluate the effect of the treatment on the alveolar bone loss, the following three measurements (De Faria Vasconcelos et al. 2012) were performed on the selected teeth for the study: • 1. The heigh of the alveolar crest (AC), measured from the cementoenamel junction (CEJ) to the upper rim of AC (Figure 13A). • 2. The depth of the defect, measured from the CEJ to the bottom of the defect (Figure 13B). • 3. The width of the defect, measured from the highest point of the AC to the dental root adjacent to the defect (Figure 13C).
These measurements were performed using digital ruler of the imaging software or external program (i.e., Image J) and recorded in the IMAGING FORM.

[2] = test system: dogs with alveolar bone loss induced by spontaneously developed periodontal disease; test: Periodontal parameter assessment (CAL, PPD, bleeding) in dogs with periodontal disease; conditions: CTX-1 responders; Day-90 vs Day-0
Description: as §1, §2
The examination was performed at visit V2 (Day 0) and visit V5 (90t 3 days).
At visit V2 (Day 0) and V5 (90 ± 3 days). the Investigator evaluated the following parameters for each tooth: • Periodontal probing depth (PPD) - measured as the distance from the gingival margin to the bottom of the pocket using a graduated periodontal probe of Investigator's choice. The sulcus/pocket was measured circumferentially around the whole tooth and valued of 3 to 6 places, depending on the tooth localization (Figure 11). Measurements was done in millimeters (mm) and rounded to the nearest lower value. The mean PPD value of these measurements per tooth was calculated. • Clinical attachment loss (CAL) - measured as the distance from the cemento-enamel-junction to the bottom of the pocket using a periodontal probe of the Investigator choice. CAL was measured in 3 to 6 sites per tooth depending on the tooth localization (Figure 11). Measurements was done in millimeters (mm) and rounded to the nearest lower value (Kortegaard et al. 2014). The mean CAL value of these measurements per tooth will be calculated. • Bleeding Probing Index - assessed at each site of PPD and CAL measurement. Depending on the absence or presence of bleeding within 10 second following probing of the tooth, BPI scored either as 0 or 1 respectively. The mean BIP value was calculated per tooth.
At visit V5 (90t 3 days), the Investigator assessed PPD, CAL and BoP in only 3 selected teeth for the study and recorded it in PERIODONTAL PARAMETERS FORM.

CC(C)C[C@H](NC(=O)c1ccc(-c2csc(N3CCN(C)CC3)n2)cc1)C(=O)N1C[C@H](F)[C@H]2OCC(O)(O)[C@H]21 [MIV-701 besylate salt, N-[(S)-1-((3aS,6S,6aS)-6-Fluoro-S-oxo-hexahydro-furo[3,2-b]pyrrole-4-carbony)-3-methyl-butyl]-4-[2-(4-methyl-piperazin-1-yl)-thiazol-4-yl]-benzamide benzenesulphonate]
inhibition of pre-dose plasma CTX-1 vs baseline (CTX-1; 10 mg/kg once a day, D1 to end of 14 days): 40% | time of CTX-1 inhibition peak after administration (CTX-1; D0, three doses tested): 8 h | pre-dose plasma CTX-1 during repeated administration (CTX-1; once a day oral, D1 to end of 14 days): dose-dependent inhibition | CTX-1 plasma concentration 24 hours after administration (CTX-1; single dose 10mg/kg and 100 mg/kg): did not go back to pre-dose concentration | effect on plasma CTX-1 (CTX-1; single oral administration (D0) at 1 mg, 10 mg and 100 mg): dose-dependent effect | depth of the alveolar bone defect ([1]; CBCT-images): Only favorable trends | width of the alveolar bone defect ([1]; CBCT-scan and X-ray radiography): significantly reduced | height of the alveolar crest ([1]; CBCT-scan images): Significant improvements | depth of the alveolar bone loss ([1]; X-ray images): significant improvements | height of the alveolar crest ([1]; X-ray radiography): only favorable trends | Clinical Attachment Loss (CAL) [2]: significantly improved | Gingival Bleeding Index (GBI) [2]: not modified | Periodontal Probing Depth (PPD) [2]: significantly improved
